The values below come from US10781431B2, “Cardiotonic steroid antagonists and related methods” (MARSHALL UNIVERSITY RESEARCH CORPORTION, priority 2014, dated 2020).

No end group written: not given here.

Assay [1] deals with T1, Na/K-ATPase α1 (Sus scrofa, UniProt P05024).
T1 construct: in normal LLC-PK1 cells, tyrosine 260 of full length Na/K-ATPase was phosphorylated; endogenous in cells; host or cells: LLC-PK1
The assay is described as follows: tyrosine 260 phosphorylation of Na/K-ATPase, Western blot. The following applies: LLC-PK1 cells, 100 nM ouabain, FIG. 4C. In kind it is cell-based. The procedure: FIGS. 4A-4C include a schematic diagram and images relating to the phosphorylation of Y260 in CD2, FIG. 4A is a schematic diagram showing CD2 sequence from Na/K-ATPase α1 subunit with the tentative Src SH2 domain binding region surrounding Y260 marked in a box (SEQ ID NO: 10). FIG. 4B is an image showing the results of an experiment where five hundred μg of total cell lysate was immunoprecipitated with 10 μg anti-Src antibody and immunoprecipitates were subjected to Western blot analysis of tyrosine 260 phosphorylation using an anti-phosphotyrosine 260 Na/K-ATPase α1 antibody, and where the same membrane was stripped and probed for YFP. FIG. 4C includes images showing the results of an experiment where LLC-PK1 cells were grown up to 100% confluence and then serum starved overnight and treated with 100 nM ouabain for the indicated times and then western blotted by probing for pY260 α1 Na/K-ATPase and a 1 Na/K-ATPase, […] Src and total Src.
In view of the foregoing findings, experiments were then undertaken to develop a highly specific peptide antagonist for disrupting the CD2/SH2 interaction in order to inhibit the cardiotonic steroid-mediated signaling, in cells. […] As depicted in FIG. 4B, CD2 was capable of being phosphorylated when it was expressed in cells.
Background: Immunoblotting shows a protein as a band on a membrane.

For assay [2] the following is noted: reconstituted in vitro system; previously demonstrated (PCT/US2011/021130); cited from earlier work.

As for `C[C@@H]1O[C@@H](O[C@H]2C[C@@H](O)[C@]3(CO)[C@H]4[C@H](O)C[C@]5(C)[C@@H](C6=CC(=O)OC6)CC[C@]5(O)[C@@H]4CC[C@]3(O)C2)[C@H](O)[C@H](O)[C@H]1O` [ouabain], in assay [1], the “phosphorylation of tyrosine 260 of full length Na/K-ATPase” value is listed as “increased the phosphorylation in a time-dependent manner”.
With “CD2C2: peptide derived from CD2, non-phosphorylated; SEQ ID NO: 1 in PCT/US2011/021130 (STNCVEGTARGIVVYTGD; not fully specified (residue 15); listed as Homo sapiens)”, the ouabain antagonism entry in assay [2] is given as “effective ouabain antagonist”.
